# Read-outs that look alike come from different tables or passages of the source.
# How the values were obtained:
# [1] = target: active mouse DPP1 enzyme (Mus musculus (Mouse), UniProt P97821); assay: Mouse DPP1 Enzyme IC50 Assay; assay type: biochemical
# Method: Test articles were applied to active mouse DPP1 enzyme (R&D Systems; Minneapolis, MN) in Assay Buffer (50 mM MES pH 5.5, 50 mM NaCl, 5 mM DTT) in a total reaction volume of 125 μL. 25 μL of compound in Assay Buffer plus 5% DMSO was first added to 50 μL of active mouse DPP1 enzyme at a concentration of 62.5 pg/μL and allowed to pre-incubate for 10 minutes at 37° C. after which 50 μL of 1000 μM H-Gly-Arg-AMC substrate (Bachem; St. Torrance, CA) was added, giving final substrate concentration of 400 μM and a final DMSO concentration of 1%. Substrate cleavage was measured for 90 minutes at 37° C., with fluorescence at Excitation/Emission 350/450 nm measured every 5 minutes. DPP1 concentration was interpolated based on its activity relative to a standard curve of recombinant active mouse DPP1 enzyme. IC50 values for each compound were calculated via the XLFit (IDBS Version 5.3.1.3) Add-On to Microsoft Excel using the four parameter fit equation y=(A+((B−A)/(1+((C/x)^D)))), which appears as equation number 205 (4 Parameter Logistic Model or Sigmoidal Dose-Response Model) in XLFit. Default constraints were used for each Parameter. IC50 was defined as the compound concentration at which 50% of enzyme activity was inhibited when compared to the no-compound control.
# [2] = target: Recombinant human DPP1 enzyme (Homo sapiens (Human), UniProt P53634); assay: Human DPP1 Enzyme IC50 Assay; assay type: biochemical
# Method: Recombinant human DPP1 enzyme (R&D Systems; Minneapolis, MN) was first proteolytically processed into its mature form using recombinant human cathepsin L (R&D Systems) in a buffer consisting of 20 mM citric acid pH 4.5, 150 mM NaCl, 1 mM EDTA and 10 mM DTT. Test articles were applied to activated human DPP1 enzyme in Assay Buffer (25 mM MES pH 6.0, 50 mM NaCl, 5 mM DTT) in a total reaction volume of 125 μL. 25 μL of compound in Assay Buffer plus 5% DMSO was first added to 50 μL of activated human DPP1 enzyme at a concentration of 1 ng/μL and allowed to pre-incubate for 10 minutes at 37° C. after which 50 μL of 1000 μM H-Gly-Arg-AMC substrate (Bachem; St. Torrance, CA) was added, giving final substrate concentration of 400 μM and a final DMSO concentration of 1%. Substrate cleavage was measured for 90 minutes at 37° C., with fluorescence at Excitation/Emission 350/450 nm measured every 5 minutes. DPP1 concentration was interpolated based on its activity relative to a standard curve of activated human recombinant DPP1 enzyme. IC50 values for each compound were calculated via the XLFit (IDBS Version 5.3.1.3) Add-On to Microsoft Excel using the four parameter fit equation y={A+[(B−A)]/[1+((C/x)^D)]}, which appears as equation number 205 (4 Parameter Logistic Model or Sigmoidal Dose-Response Model) in XLFit. Default constraints were used for each Parameter.
# [3] = target: DPP1 in HL-60 cells (Homo sapiens (Human), UniProt P53634); assay: DPP1 Cell IC50 Assay (HL-60 cells, H-Gly-Phe-AFC substrate); assay type: cell-based
# Method: HL-60 cells (ATCC; Manassas, VA) were maintained in RPMI-1640 supplemented with 20% heat-inactivated FBS and 1× Antibiotic Antimycotic (Cytiva; Marlborough, MA). Media was changed every three to four days and cells were not allowed to exceed 1×10^6 cells per mL. Prior to assay, cells were collected by centrifugation at 500 rcf for 3 minutes, resuspended in PBS and counted. Cells were diluted in PBS to a concentration of 5×10^5 live cells per mL and transferred to black 96-well plates for assay, 60 μL per well. Test articles were diluted in PBS plus 0.5% DMSO, and 20 μL was added to each assay well. Compound was allowed to pre-incubate with cells with gentle shaking at 100 rpm for 60 minutes at 37° C. in a cell culture incubator maintained at 5% CO2, after which 20 μL of 500 μM H-Gly-Phe-AFC substrate (MP Biomedicals; Solon, OH) was added to each well. Plates were returned to the incubator with shaking at 100 rpm for 30 minutes, after which fluorescence was measured at Excitation/Emission 400/505 nm. % Inhibition was calculated from RFU values compared to control cell wells that received only PBS plus 0.5% DMSO. IC50 values for each compound were calculated via the XLFit (IDBS Version 5.3.1.3) Add-On to Microsoft Excel using the four parameter fit equation y=(A+((B−A)/(1+((C/x)^D)))), which appears as equation number 205 (4 Parameter Logistic Model or Sigmoidal Dose-Response Model) in XLFit.
# [4] = mouse DPP1 enzyme, Table 16, read-out: IC50, nM, Mouse
# [5] = human DPP1 enzyme, Table 16, read-out: IC50, nM, Human
# [6] = H-Gly-Phe-AFC substrate, Table 15, read-out: Cell IC50
# [7] = figure legends FIG. 12 and 13, read-out: IC50, in vitro inhibition of mouse DPP1
# [8] = mouse DPP1 enzyme, H-Gly-Arg-AMC substrate 400 μM, Table 13, read-out: IC50
# [9] = figure legends FIG. 14 and 15, read-out: IC50, in vitro inhibition of human DPP1
# Chain of DPP1 in HL-60 cells (P53634 25-134): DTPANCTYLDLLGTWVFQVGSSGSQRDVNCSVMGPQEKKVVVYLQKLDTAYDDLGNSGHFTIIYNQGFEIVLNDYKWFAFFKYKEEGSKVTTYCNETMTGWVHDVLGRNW
# Chain of DPP1 in HL-60 cells (P53634 231-394): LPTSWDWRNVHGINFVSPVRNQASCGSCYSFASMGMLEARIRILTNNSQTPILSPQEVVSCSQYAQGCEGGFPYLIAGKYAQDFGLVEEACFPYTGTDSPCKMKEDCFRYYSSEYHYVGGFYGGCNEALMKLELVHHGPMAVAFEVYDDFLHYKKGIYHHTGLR
# Chain of DPP1 in HL-60 cells (P53634 395-463): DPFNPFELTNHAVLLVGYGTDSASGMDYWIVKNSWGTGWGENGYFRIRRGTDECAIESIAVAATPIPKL
# Chain of Recombinant human DPP1 enzyme (P53634 25-134): as the sequence (P53634 25-134) above
# Chain of Recombinant human DPP1 enzyme (P53634 231-394): as the sequence (P53634 231-394) above
# Chain of Recombinant human DPP1 enzyme (P53634 395-463): as the sequence (P53634 395-463) above
# Chain of active mouse DPP1 enzyme (P97821 25-134): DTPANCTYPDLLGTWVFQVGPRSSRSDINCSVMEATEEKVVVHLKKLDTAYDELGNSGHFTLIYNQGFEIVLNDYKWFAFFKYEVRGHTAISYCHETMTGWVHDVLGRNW
# Chain of active mouse DPP1 enzyme (P97821 231-393): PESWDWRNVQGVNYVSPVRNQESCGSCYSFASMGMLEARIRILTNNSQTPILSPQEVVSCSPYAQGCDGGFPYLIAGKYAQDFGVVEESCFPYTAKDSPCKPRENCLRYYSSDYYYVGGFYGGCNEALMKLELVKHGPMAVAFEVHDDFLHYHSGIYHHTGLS
# Chain of active mouse DPP1 enzyme (P97821 394-462): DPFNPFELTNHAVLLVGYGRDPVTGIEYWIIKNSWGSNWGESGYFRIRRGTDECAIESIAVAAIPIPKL
"IC50 [1, 4] [nM]","IC50 [2, 5] [nM]","IC50 ([3]; Table 16, read-out: Cell Assay) [nM]",Structure (SMILES),further results
131,189,26,Cn1c(=O)oc2ccc(-c3ccc(C[C@@H](C#N)NC(=O)[C@@H]4C[C@@H]5C[C@@H]5N4)cc3)cc21,
306,537,330,Cn1c(=O)oc2ccc(-c3ccc(C[C@@H](C#N)NC(=O)[C@@H]4COCCN4)cc3)cc21,
438,784,878,Cn1c(=O)oc2ccc(-c3ccc(C[C@@H](C#N)NC(=O)C4CC5OCCC5N4)cc3)cc21 (some centres unmarked),
815,1100,40.1,Cn1c(=O)oc2ccc(-c3ccc(C[C@@H](C#N)NC(=O)CC4(N)CCCCC4)cc3)cc21,
226,497,> 1000,Cn1c(=O)oc2ccc(-c3ccc(C[C@@H](C#N)NC(=O)[C@H]4C[C@H]5OCC[C@H]5N4)cc3)cc21,
785,360,54.7,Cn1c(=O)oc2ccc(-c3ccc(C[C@@H](C#N)NC(=O)C4CNC(C)(C)CO4)cc3)cc21 (some centres unmarked),
647,432,508,Cn1c(=O)oc2ccc(-c3ccc(CC(C#N)NC(=O)C4CNC4)c(F)c3)cc21 (centres unmarked),
,416,418,[2H]C([2H])([2H])n1c(=O)oc2ccc(-c3ccc(C[C@@H](C#N)NC(=O)C4CNC4)c(F)c3)cc21,
246,480,875,N#Cc1ccc(-c2ccc(C[C@@H](C#N)NC(=O)[C@@H]3C[C@@H]4COC[C@@H]4N3)cc2)cc1,
,426,500,[2H]C([2H])([2H])n1c(=O)oc2ccc(-c3ccc(C[C@@H](C#N)NC(=O)[C@@H]4C[C@@H]5COC[C@@H]5N4)cc3)cc21,
41.2,179,150,Cn1c(=O)oc2ccc(-c3ccc(C[C@@H](C#N)NC(=O)[C@@H]4C[C@@H]5COC[C@@H]5N4)c(F)c3)cc21,
,102,146,[2H]C([2H])([2H])n1c(=O)oc2ccc(-c3ccc(C[C@@H](C#N)NC(=O)[C@@H]4C[C@@H]5COC[C@@H]5N4)c(F)c3)cc21,
218,186,10.1,Cn1c(=O)oc2ccc(-c3ccc(C[C@@H](C#N)NC(=O)[C@@H]4CNCCCO4)cc3F)cc21,
6.5,10.1,3 ± 0.4,N#Cc1ccc(-c2ccc(C[C@@H](C#N)NC(=O)[C@@H]3C[C@@H]4CCC[C@@H]4N3)c(F)c2)cc1,
8.2,17.3,3.1,Cn1c(=O)oc2ccc(-c3ccc(C[C@@H](C#N)NC(=O)[C@@H]4C[C@@H]5CCC[C@@H]5N4)cc3)cc21,
,29.6,3.8,Cn1c(=O)oc2ccc(-c3cc(F)c(C[C@@H](C#N)NC(=O)[C@@H]4CNCCCO4)cc3F)cc21,

"IC50 [1, 4] [nM]","IC50 [2, 5] [nM]","IC50 ([3]; Table 16, read-out: Cell Assay) [nM]",Structure (SMILES),further results
,42.2,4.9,Cn1c(=O)oc2ccc(-c3cc(F)c(C[C@@H](C#N)NC(=O)[C@@H]4CNCCCO4)c(F)c3)cc21,
,428,59.9,N#C[C@H](Cc1ccc(-c2ccc3c(c2)C(=O)NC3)cc1)NC(=O)[C@@H]1CNCCCO1,
,,,"CC[C@@H](/C=C/C(=O)N1CCc2ccccc21)NC(=O)C1(N)CCOCC1 [GSK-2793660, reference compound]","IC50 [3, 6]: 0.34 nM"
,,,"Cn1c(=O)oc2ccc(-c3ccc(C[C@@H](C#N)NC(=O)[C@@H]4C[C@H]5C[C@H]5N4)cc3)cc21 [IWD-002, (1R,3S,5R)—N—((S)-1-cyano-2-(4-(3-methyl-2-oxo-2,3-dihydrobenzo[d]oxazol-5-yl)phenyl)ethyl)-2-azabicyclo[3.1.0]hexane-3-carboxamide]","IC50 [3, 6]: 3.7 nM"
,,,"N#Cc1ccc(-c2ccc(C[C@@H](C#N)NC(=O)[C@@H]3C[C@H]4COC[C@H]4N3)cc2)cc1 [IWD-004, (2S,3αR,6αS)—N—((S)-1-cyano-2-(4′-cyano-[1,1′-biphenyl]-4-yl)ethyl)hexahydro-1H-furo[3,4-b]pyrrole-2-carboxamide]","IC50 [1, 7]: 209 nM; IC50 [1, 8]: 209 nM; IC50 [2, 9]: 245 nM"
,,,"Cn1c(=O)oc2ccc(-c3ccc(C[C@@H](C#N)NC(=O)[C@@H]4C[C@H]5COC[C@H]5N4)cc3)cc21 [IWD-005, (2S,3αR,6αS)—N—((S)-1-cyano-2-(4-(3-methyl-2-oxo-2,3-dihydrobenzo[d]oxazol-5-yl)phenyl)ethyl)hexahydro-1H-furo[3,4-b]pyrrole-2-carboxamide]","IC50 [1, 7]: 45.6 nM; IC50 [1, 8]: 45.6 nM; IC50 [2, 9]: 69.2 nM; IC50 ([2]; human DPP1 enzyme, H-Gly-Arg-AMC substrate 400 μM, Table 14, read-out: IC50): 69.2 nM"
24,41.1,3.7,Cn1c(=O)oc2ccc(-c3ccc(C[C@@H](C#N)NC(=O)[C@@H]4C[C@H]5C[C@H]5N4)cc3)cc21 [drawing 1151],
19.6,30.4,,Cn1c(=O)oc2ccc(-c3ccc(C[C@@H](C#N)NC(=O)[C@@H]4C[C@H]5C[C@H]5N4)cc3)cc21 [drawing 1152],
209,269,,N#Cc1ccc(-c2ccc(C[C@@H](C#N)NC(=O)[C@@H]3C[C@H]4COC[C@H]4N3)cc2)cc1 [drawing 1153],
45.6,69.2,,Cn1c(=O)oc2ccc(-c3ccc(C[C@@H](C#N)NC(=O)[C@@H]4C[C@H]5COC[C@H]5N4)cc3)cc21 [drawing 1154],
2080,828,60.4,Cn1c(=O)oc2ccc(-c3ccc(C[C@@H](C#N)NC(=O)C4CNCC45CCC5)cc3)cc21 (some centres unmarked) [drawing 1188],
31,31.4,3.6,N#Cc1ccc(-c2ccc(C[C@@H](C#N)NC(=O)[C@@H]3CNCCCO3)c(F)c2)cc1 [drawing 1196],
36.7,49.5,4.2,N#Cc1ccc(-c2ccc(C[C@@H](C#N)NC(=O)[C@@H]3CNCCCO3)c(F)c2)cc1 [drawing 1197],
136,311,462,Cn1c(=O)oc2ccc(-c3ccc(C[C@@H](C#N)NC(=O)[C@@H]4C[C@@H]5COC[C@@H]5N4)cc3)cc21 [drawing 1208],
3.4,5.9,1.7,Cn1c(=O)oc2ccc(-c3ccc(C[C@@H](C#N)NC(=O)[C@@H]4C[C@@H]5CCC[C@@H]5N4)c(F)c3)cc21 [drawing 1220],
,7.6,1.9,Cn1c(=O)oc2ccc(-c3ccc(C[C@@H](C#N)NC(=O)[C@@H]4C[C@@H]5CCC[C@@H]5N4)c(F)c3)cc21 [drawing 1227],

# From US20260062420A1, “NOVEL DPP1 INHIBITORS AND USES THEREOF” (Insmed Incorporated, priority 2022, published 2026)
